In article PMC8650577:
*1 amine or outer side, *2 acyl side, *3 side chain or, on linkers, in order; H or OH if unused. Where a SMILES comes first, the peptide text is derived from it. Bridges are numbered along the chain shown (N, C = ends). [ ]: non-standard residue; d: D form. Maleimide(3,4-diyl) = O=C1NC(=O)C([*:2])=C1[*:1]; hCys = N[C@@H](CCS)C(=O)O

Experiments:
[1] = Two-component i,i+4 bis-thiol stapling: TCEP (1.1 eq) reduction for 1 h, then 2,3-dibromomaleimide (1.1 eq) for 1 h; two S-C(maleimide) thioether bonds formed; conditions: the molecule shown is the open-chain precursor, MeCN/50 mM aq. ammonium acetate pH 7.4 (1:1), 3.3 mM, 14 steps
[2] = Two-component bis-thiol stapling with 2,3-dibromomaleimide (200 uM), TCEP (100 uM); thioether formation followed at 395 nm; conditions: the molecule shown is the open-chain precursor, 50 mM aq. phosphate buffer pH 6.0, 0.1 mM, 20.0 °C, 1.0 h
[3] = circular dichroism; conditions: 10 mM sodium phosphate; pH 7.2; 25 °C; 250 uM

SMILES: CC(=O)N[C@@H](CSC1=C(Br)C(=O)NC1=O)C(=O)N[C@@H](C)C(=O)N[C@@H](C)C(=O)N[C@@H](C)C(=O)N[C@@H](CS)C(N)=O [Ac-Cys-Ala-Ala-Ala-Cys-NH2]
- ring closure, overall yield ([1]; 19-membered ring): 21%
- ring closure, halflife ([2]; 19-membered ring): 8 min

SMILES: CC(=O)N[C@H](CSC1=C(Br)C(=O)NC1=O)C(=O)N[C@@H](C)C(=O)N[C@@H](C)C(=O)N[C@@H](C)C(=O)N[C@H](CS)C(N)=O [Ac-D-Cys-Ala-Ala-Ala-D-Cys-NH2]
- ring closure, overall yield ([1]; 19-membered ring): 11%
- ring closure, halflife ([2]; 19-membered ring): 10 min

SMILES: CC(=O)N[C@H]1CSC2=C(SC[C@H](C(N)=O)NC(=O)[C@H](C)NC(=O)[C@H](C)NC(=O)[C@H](C)NC1=O)C(=O)NC2=O
- helicity [3]: 17 rel %

SMILES: CC(=O)N[C@H]1CCSC2=C(SC[C@@H](C(N)=O)NC(=O)[C@H](C)NC(=O)[C@H](C)NC(=O)[C@H](C)NC1=O)C(=O)NC2=O (Ac-[hCys]AAAC-NH2; linker 1-5 via Maleimide(3,4-diyl))
- helicity [3]: 11 rel %

SMILES: CC(=O)N[C@@H](CCSC1=C(Br)C(=O)NC1=O)C(=O)N[C@@H](C)C(=O)N[C@@H](C)C(=O)N[C@@H](C)C(=O)N[C@@H](CS)C(N)=O [Ac-hCys-Ala-Ala-Ala-Cys-NH2]
- ring closure, overall yield ([1]; 20-membered ring): 18%
- ring closure, halflife ([2]; 20-membered ring): 11 min

SMILES: CC(=O)N[C@@H](CSC1=C(Br)C(=O)NC1=O)C(=O)N[C@@H](C)C(=O)N[C@@H](C)C(=O)N[C@@H](C)C(=O)N[C@H](CS)C(N)=O [Ac-Cys-Ala-Ala-Ala-D-Cys-NH2]
- ring closure, overall yield ([1]; 19-membered ring): 21%
- ring closure, halflife ([2]; 19-membered ring): 8 min

SMILES: CC(=O)N[C@H](CSC1=C(Br)C(=O)NC1=O)C(=O)N[C@@H](C)C(=O)N[C@@H](C)C(=O)N[C@@H](C)C(=O)N[C@@H](CS)C(N)=O [Ac-D-Cys-Ala-Ala-Ala-Cys-NH2]
- ring closure, overall yield ([1]; 19-membered ring): 7%
- ring closure, halflife ([2]; 19-membered ring): 8 min

SMILES: CC(=O)N[C@@H](CSC1=C(Br)C(=O)NC1=O)C(=O)N[C@@H](C)C(=O)N[C@@H](C)C(=O)N[C@@H](C)C(=O)N[C@@H](CCS)C(N)=O [Ac-Cys-Ala-Ala-Ala-hCys-NH2]
- ring closure, overall yield ([1]; 20-membered ring): 4%
- ring closure, halflife ([2]; 20-membered ring): 13 min

SMILES: CC(=O)N[C@@H]1CSC2=C(SC[C@@H](C(N)=O)NC(=O)[C@H](C)NC(=O)[C@H](C)NC(=O)[C@H](C)NC1=O)C(=O)NC2=O
- helicity [3]: 28 rel %

SMILES: CC(=O)N[C@H]1CCSC2=C(SCC[C@@H](C(N)=O)NC(=O)[C@H](C)NC(=O)[C@H](C)NC(=O)[C@H](C)NC1=O)C(=O)NC2=O (Ac-[hCys]AAA[hCys]-NH2; linker 1-5 via Maleimide(3,4-diyl))
- helicity [3]: 13 rel %

SMILES: CC(=O)N[C@@H](CCSC1=C(Br)C(=O)NC1=O)C(=O)N[C@@H](C)C(=O)N[C@@H](C)C(=O)N[C@@H](C)C(=O)N[C@@H](CCS)C(N)=O [Ac-hCys-Ala-Ala-Ala-hCys-NH2]
- ring closure, overall yield ([1]; 21-membered ring): 17%
- ring closure, halflife ([2]; 21-membered ring): 9 min

SMILES: CC(=O)N[C@@H]1CSC2=C(SC[C@H](C(N)=O)NC(=O)[C@H](C)NC(=O)[C@H](C)NC(=O)[C@H](C)NC1=O)C(=O)NC2=O
- helicity [3]: 13 rel %

SMILES: CC(=O)N[C@H]1CSC2=C(SC[C@@H](C(N)=O)NC(=O)[C@H](C)NC(=O)[C@H](C)NC(=O)[C@H](C)NC1=O)C(=O)NC2=O
- helicity [3]: 25 rel %

SMILES: CC(=O)N[C@H]1CSC2=C(SCC[C@@H](C(N)=O)NC(=O)[C@H](C)NC(=O)[C@H](C)NC(=O)[C@H](C)NC1=O)C(=O)NC2=O (Ac-CAAA[hCys]-NH2; linker 1-5 via Maleimide(3,4-diyl))
- helicity [3]: 48 rel %
